From ChEMBL document CHEMBL2380212, “Synthesis, single crystal and antitumor activities of benzimidazole-quinazoline hybrids” (Bioorg Med Chem Lett, 2013)

What was measured:
[1] = n-Octanol-phosphate buffer partition coefficient, log P of the compound at pH 7.4 by shake flask method; format: physicochemical
[2] = system: MDA-MB-468; test: Cytotoxicity against human MDA-MB-468 cells at 10 uM after 48 hrs by SRB assay; format: functional; conditions: MDA-MB-468, 48 h, read-out: GI
[3] = system: T47D; test: Cytotoxicity against human T47D cells at 10 uM after 48 hrs by SRB assay; format: functional; conditions: read-out: GI
[4] = system: Hs-578T; test: Cytotoxicity against human Hs578T cells at 10 uM after 48 hrs by SRB assay; format: functional; conditions: read-out: GI
[5] = system: MCF7; test: Cytotoxicity against human MCF7 cells at 10 uM after 48 hrs by SRB assay; format: functional; conditions: MCF7, 48 h, read-out: GI
[6] = system: MDA-MB-231; test: Cytotoxicity against human MDA-MB-231 cells at 10 uM after 48 hrs by SRB assay; format: functional; conditions: MDA-MB-231, 48 h, read-out: GI
[7] = system: UO-31; test: Cytotoxicity against human UO31 cells at 10 uM after 48 hrs by SRB assay; format: functional; conditions: UO-31, 48 h, read-out: GI
[8] = system: TK-10; test: Cytotoxicity against human TK10 cells at 10 uM after 48 hrs by SRB assay; format: functional; conditions: TK-10, 48 h, read-out: GI
[9] = system: RXF 393; test: Cytotoxicity against human RXF393 cells at 10 uM after 48 hrs by SRB assay; format: functional; conditions: RXF 393, 48 h, read-out: GI
[10] = system: SN12C; test: Cytotoxicity against human SN12C cells at 10 uM after 48 hrs by SRB assay; format: functional; conditions: read-out: GI
[11] = system: CAKI-1; test: Cytotoxicity against human Caki1 cells at 10 uM after 48 hrs by SRB assay; format: functional; conditions: CAKI-1, 48 h, read-out: GI
[12] = system: ACHN; test: Cytotoxicity against human ACHN cells at 10 uM after 48 hrs by SRB assay; format: functional; conditions: read-out: GI
[13] = system: A498; test: Cytotoxicity against human A498 cells at 10 uM after 48 hrs by SRB assay; format: functional; conditions: A498, 48 h, read-out: GI
[14] = system: 786-0; test: Cytotoxicity against human 786-0 cells at 10 uM after 48 hrs by SRB assay; format: functional; conditions: 786-0, 48 h, read-out: GI
[15] = system: SK-OV-3; test: Cytotoxicity against human SKOV3 cells at 10 uM after 48 hrs by SRB assay; format: functional; conditions: SK-OV-3, 48 h, read-out: GI
[16] = system: OVCAR-5; test: Cytotoxicity against human OVCAR5 cells at 10 uM after 48 hrs by SRB assay; format: functional; conditions: OVCAR-5, 48 h, read-out: GI
[17] = system: OVCAR-3; test: Cytotoxicity against human OVCAR3 cells at 10 uM after 48 hrs by SRB assay; format: functional; conditions: OVCAR-3, 48 h, read-out: GI
[18] = system: IGROV-1; test: Cytotoxicity against human IGROV1 cells at 10 uM after 48 hrs by SRB assay; format: functional; conditions: IGROV-1, 48 h, read-out: GI
[19] = system: UACC-62; test: Cytotoxicity against human UACC62 cells at 10 uM after 48 hrs by SRB assay; format: functional; conditions: UACC-62, 48 h, read-out: GI
[20] = system: SK-MEL-28; test: Cytotoxicity against human SK-MEL-28 cells at 10 uM after 48 hrs by SRB assay; format: functional; conditions: SK-MEL-28, 48 h, read-out: GI
[21] = system: SK-MEL-5; test: Cytotoxicity against human SK-MEL-5 cells at 10 uM after 48 hrs by SRB assay; format: functional; conditions: SK-MEL-5, 48 h, read-out: GI
[22] = system: M14; test: Cytotoxicity against human M14 cells at 10 uM after 48 hrs by SRB assay; format: functional; conditions: M14, 48 h, read-out: GI
[23] = system: MDA-MB-435; test: Cytotoxicity against human MDA-MB-435 cells at 10 uM after 48 hrs by SRB assay; format: functional; conditions: MDA-MB-435, 48 h, read-out: GI
[24] = system: LOX IMVI; test: Cytotoxicity against human LOXIMVI cells at 10 uM after 48 hrs by SRB assay; format: functional; conditions: read-out: GI
[25] = system: SNB-75; test: Cytotoxicity against human SNB75 cells at 10 uM after 48 hrs by SRB assay; format: functional; conditions: SNB-75, 48 h, read-out: GI
[26] = system: SNB-19; test: Cytotoxicity against human SNB19 cells at 10 uM after 48 hrs by SRB assay; format: functional; conditions: SNB-19, 48 h, read-out: GI
[27] = system: SF-295; test: Cytotoxicity against human SF295 cells at 10 uM after 48 hrs by SRB assay; format: functional; conditions: SF-295, 48 h, read-out: GI
[28] = system: SF-539; test: Cytotoxicity against human SF539 cells at 10 uM after 48 hrs by SRB assay; format: functional; conditions: SF-539, 48 h, read-out: GI
[29] = system: SW-620; test: Cytotoxicity against human SW620 cells at 10 uM after 48 hrs by SRB assay; format: functional; conditions: SW-620, 48 h, read-out: GI
[30] = system: HCT-15; test: Cytotoxicity against human HCT15 cells at 10 uM after 48 hrs by SRB assay; format: functional; conditions: HCT-15, 48 h, read-out: GI
[31] = system: HCT-116; test: Cytotoxicity against human HCT116 cells at 10 uM after 48 hrs by SRB assay; format: functional; conditions: HCT-116, 48 h, read-out: GI
[32] = system: HCC 2998; test: Cytotoxicity against human HCC2998 cells at 10 uM after 48 hrs by SRB assay; format: functional; conditions: HCC 2998, 48 h, read-out: GI
[33] = system: COLO 205; test: Cytotoxicity against human COLO205 cells at 10 uM after 48 hrs by SRB assay; format: functional; conditions: COLO 205, 48 h, read-out: GI
[34] = system: NCI-H522; test: Cytotoxicity against human NCI-H522 cells at 10 uM after 48 hrs by SRB assay; format: functional; conditions: NCI-H522, 48 h, read-out: GI
[35] = system: NCI-H322M; test: Cytotoxicity against human NCI-H322M cells at 10 uM after 48 hrs by SRB assay; format: functional; conditions: read-out: GI
[36] = system: NCI-H23; test: Cytotoxicity against human NCI-H23 cells at 10 uM after 48 hrs by SRB assay; format: functional; conditions: NCI-H23, 48 h, read-out: GI
[37] = system: HOP-62; test: Cytotoxicity against human HOP62 cells at 10 uM after 48 hrs by SRB assay; format: functional; conditions: HOP-62, 48 h, read-out: GI
[38] = system: HOP-92; test: Cytotoxicity against human HOP92 cells at 10 uM after 48 hrs by SRB assay; format: functional; conditions: HOP-92, 48 h, read-out: GI
[39] = Cytotoxicity against human EKVX cells at 10 uM after 48 hrs by SRB assay; format: functional; conditions: read-out: GI
[40] = system: A549; test: Cytotoxicity against human A549 cells at 10 uM after 48 hrs by SRB assay; format: functional; conditions: A549, 48 h, read-out: GI
[41] = system: MOLT-4; test: Cytotoxicity against human MOLT4 cells at 10 uM after 48 hrs by SRB assay; format: functional; conditions: MOLT-4, 48 h, read-out: GI
[42] = system: HL-60(TB); test: Cytotoxicity against human HL-60(TB) cells at 10 uM after 48 hrs by SRB assay; format: functional; conditions: HL-60, 48 h, read-out: GI

## C=CCn1c(C)nc2ccc(Nc3nc(N4CCCC4)nc4ccccc34)cc21
[1]
  logD: 2.9
[2]
  inhibition of growth at 10 µM: < 10%
[3]
  inhibition of growth at 10 µM: < 10%
[4]
  inhibition of growth at 10 µM: 13.1%
[5]
  inhibition of growth at 10 µM: 38.1%
[6]
  inhibition of growth at 10 µM: 58%
[7]
  inhibition of growth at 10 µM: 31.9%
[8]
  inhibition of growth at 10 µM: < 10%
[9]
  inhibition of growth at 10 µM: 47.6%
[10]
  inhibition of growth at 10 µM: < 10%
[11]
  inhibition of growth at 10 µM: 15%
[12]
  inhibition of growth at 10 µM: < 10%
[13]
  inhibition of growth at 10 µM: 28.5%
[14]
  inhibition of growth at 10 µM: 24%
[15]
  inhibition of growth at 10 µM: < 10%
[16]
  inhibition of growth at 10 µM: < 10%
[17]
  inhibition of growth at 10 µM: < 10%
[18]
  inhibition of growth at 10 µM: < 10%
[19]
  inhibition of growth at 10 µM: < 10%
[20]
  inhibition of growth at 10 µM: 19.8%
[21]
  inhibition of growth at 10 µM: 37.6%
[22]
  inhibition of growth at 10 µM: 10.3%
[23]
  inhibition of growth at 10 µM: < 10%
[24]
  inhibition of growth at 10 µM: 97.5%
[25]
  inhibition of growth at 10 µM: 16.3%
[26]
  inhibition of growth at 10 µM: < 10%
[27]
  inhibition of growth at 10 µM: 16.3%
[28]
  inhibition of growth at 10 µM: < 10%
[29]
  inhibition of growth at 10 µM: 24.9%
[30]
  inhibition of growth at 10 µM: 20.6%
[31]
  inhibition of growth at 10 µM: 80.3%
[32]
  inhibition of growth at 10 µM: 76.6%
[33]
  inhibition of growth at 10 µM: < 10%
[34]
  inhibition of growth at 10 µM: < 10%
[35]
  inhibition of growth at 10 µM: < 10%
[36]
  inhibition of growth at 10 µM: 11.3%
[37]
  inhibition of growth at 10 µM: < 10%
[38]
  inhibition of growth at 10 µM: 18.6%
[39]
  inhibition of growth at 10 µM: < 10%
[40]
  inhibition of growth at 10 µM: 25.4%
[41]
  inhibition of growth at 10 µM: 50%
[42]
  inhibition of growth at 10 µM: 11.5%

## C=CCn1c(C)nc2cc(Nc3nc(Cl)nc4ccccc34)ccc21
[1]
  logD: 1.17
[2]
  inhibition of growth at 10 µM: 19.1%
[3]
  inhibition of growth at 10 µM: 21.3%
[4]
  inhibition of growth at 10 µM: < 10%
[5]
  inhibition of growth at 10 µM: < 10%
[6]
  inhibition of growth at 10 µM: 14.5%
[7]
  inhibition of growth at 10 µM: 10.3%
[8]
  inhibition of growth at 10 µM: < 10%
[9]
  inhibition of growth at 10 µM: < 10%
[10]
  inhibition of growth at 10 µM: < 10%
[11]
  inhibition of growth at 10 µM: 16.9%
[12]
  inhibition of growth at 10 µM: < 10%
[13]
  inhibition of growth at 10 µM: 31.5%
[14]
  inhibition of growth at 10 µM: < 10%
[15]
  inhibition of growth at 10 µM: < 10%
[16]
  inhibition of growth at 10 µM: < 10%
[17]
  inhibition of growth at 10 µM: < 10%
[18]
  inhibition of growth at 10 µM: < 10%
[19]
  inhibition of growth at 10 µM: 10.2%
[20]
  inhibition of growth at 10 µM: < 10%
[21]
  inhibition of growth at 10 µM: < 10%
[22]
  inhibition of growth at 10 µM: < 10%
[23]
  inhibition of growth at 10 µM: < 10%
[24]
  inhibition of growth at 10 µM: < 10%
[25]
  inhibition of growth at 10 µM: < 10%
[26]
  inhibition of growth at 10 µM: < 10%
[27]
  inhibition of growth at 10 µM: 10.3%
[28]
  inhibition of growth at 10 µM: < 10%
[29]
  inhibition of growth at 10 µM: < 10%
[30]
  inhibition of growth at 10 µM: < 10%
[31]
  inhibition of growth at 10 µM: < 10%
[32]
  inhibition of growth at 10 µM: < 10%
[33]
  inhibition of growth at 10 µM: < 10%
[34]
  inhibition of growth at 10 µM: < 10%
[35]
  inhibition of growth at 10 µM: < 10%
[36]
  inhibition of growth at 10 µM: < 10%
[37]
  inhibition of growth at 10 µM: < 10%
[38]
  inhibition of growth at 10 µM: < 10%
[39]
  inhibition of growth at 10 µM: 17.2%
[40]
  inhibition of growth at 10 µM: < 10%
[41]
  inhibition of growth at 10 µM: < 10%
[42]
  inhibition of growth at 10 µM: < 10%
